Reference: patent publication US6472348B1, “Pyridone derivatives and herbicides” (Kumiai Chemical Industry Co., Ltd., priority 1996, dated 2002)

Experiments:
[1] = test system: pale smartweed (Po); experiment: Test Example 9: crop plant selectivity by upland field foliage treatment (wheat), herbicidal effects; format: in vivo; set-up: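 grade of growth control; 5 = at least 90%; 4 = 70 to 90%; 3 = 50 to 70%; 2 = 30 to 50%; 1 = 10 to 30%; 0 = under 10%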; settings: dose 1.6 g ai/10a, 14th day after treatment
Procedure: (§1) (Test on Crop Plant Selectivity by Upland Field Foliage Treatment)
(§2) In a plastic pot (surface area: 600 cm^2) filled with sand, wheat (Tr), pale smartweed (Po), slender amaranth (Am), common lambsquarters (Ch) and China jute (Ab) were sown and cultured in a green house for 2 weeks. […] The plants were then cultured in a green house, and the evaluation of the herbicidal effects and phytotoxicity was conducted on the 14th day after the treatment in accordance with the standards as identified in Table 47.

[2] = test system: slender amaranth (Am); experiment: as above; format: in vivo; set-up: scale not given here; settings: dose 1.6 g ai/10a, 14th day after treatment
Procedure: as §1, §2

[3] = test system: common lambsquarters (Ch); experiment: as above; format: in vivo; set-up: scale not given here; settings: dose 1.6 g ai/10a, 14th day after treatment
Procedure: as §1, §2

[4] = test system: China jute (Ab); experiment: as above; format: in vivo; set-up: scale not given here; settings: dose 1.6 g ai/10a, 14th day after treatment
Procedure: as §1, §2

[5] = test system: pale smartweed (Po); experiment: Test Example 2: herbicidal effects by upland field soil treatment; format: in vivo; settings: 100 g of the active ingredient per 10 ares;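 also: grade of growth control; 5 = at least 90%; 4 = 70 to 90%; 3 = 50 to 70%; 2 = 30 to 50%; 1 = 10 to 30%; 0 = under 10%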
Excerpt: (§3) (Test on Herbicidal Effects by Upland Field Soil Treatment)

[6] = test system: slender amaranth (Am); experiment: as above; format: in vivo; settings: 100 g of the active ingredient per 10 ares
Excerpt: as §3

[7] = test system: barnyardgrass (Ec); experiment: as above; format: in vivo; settings: 100 g of the active ingredient per 10 ares
Excerpt: as §3

[8] = test system: common lambsquarters (Ch); experiment: as above; format: in vivo; settings: 100 g of the active ingredient per 10 ares
Excerpt: as §3

[9] = test system: Digitaria ciliaris (Di); experiment: as above; format: in vivo; settings: 100 g of the active ingredient per 10 ares;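 also: grade of growth control; 5 = at least 90%; 4 = 70 to 90%; 3 = 50 to 70%; 2 = 30 to 50%; 1 = 10 to 30%; 0 = under 10%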
Excerpt: as §3

[10] = test system: rice flatsedge (Ci); experiment: as above; format: in vivo; settings: 100 g of the active ingredient per 10 ares
Excerpt: as §3

[11] = test system: wheat (Tr); experiment: Test Example 9: crop plant selectivity by upland field foliage treatment (wheat), phytotoxicity; settings: dose 1.6 g ai/10a, 14th day after treatment;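 also: grade of crop injury; 5 = at least 90%; 4 = 70 to 90%; 3 = 50 to 70%; 2 = 30 to 50%; 1 = 10 to 30%; 0 = under 10%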
Procedure: as §1, §2

[12] = test system: pale smartweed (Po); experiment: Test Example 3: herbicidal effects by upland field foliage treatment; format: in vivo; set-up: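 grade of growth control; 5 = at least 90%; 4 = 70 to 90%; 3 = 50 to 70%; 2 = 30 to 50%; 1 = 10 to 30%; 0 = under 10%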
In short: (§4)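 Seeds → sand pot (120 cm^2) → soil cover → greenhouse 2 wk → foliar treatment → greenhouse → herbicidal score at 14 d post-treatment against graded standards.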

[13] = test system: slender amaranth (Am); experiment: as above; format: in vivo; set-up: scale not given here
In short: as §4

[14] = test system: barnyardgrass (Ec); experiment: as above; format: in vivo; set-up: scale not given here
In short: as §4

[15] = test system: Diaitaria ciliaris (Di); experiment: as above; format: in vivo; set-up: scale not given here
In short: as §4

[16] = test system: common lambsquarters (Ch); experiment: as above; format: in vivo; set-up: scale not given here
In short: as §4

[17] = test system: rice flatsedge (Ci); experiment: as above; format: in vivo; set-up: scale not given here
In short: as §4

[18] = test system: bulrush (Sc); experiment: Test Example 1: herbicidal effects by paddy field soil treatment; format: in vivo; settings: 100 g of the active ingredient per 10 ares, 21st day after the application, index 0-5 of Table 47;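 also: grade of growth control; 5 = at least 90%; 4 = 70 to 90%; 3 = 50 to 70%; 2 = 30 to 50%; 1 = 10 to 30%; 0 = under 10%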
In short: (§5)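 Flooded paddy-soil pots (3 cm water) sown after puddling/leveling; treatment 100 g a.i./10 ares; greenhouse culture; herbicidal effect rated visually on a scoring scale at 21 d post-application.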

[19] = test system: barnyardgrass (Ec); experiment: as above; format: in vivo; settings: 100 g of the active ingredient per 10 ares, 21st day after the application, index 0-5 of Table 47
In short: as §5

[20] = test system: monochoria (Mo); experiment: as above; format: in vivo; settings: 100 g of the active ingredient per 10 ares, 21st day after the application, index 0-5 of Table 47
In short: as §5

[21] = test system: wheat (Tr); experiment: Test Example 5: crop plant selectivity by upland field soil treatment (wheat), phytotoxicity; format: in vivo; set-up: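 grade of crop injury; 5 = at least 90%; 4 = 70 to 90%; 3 = 50 to 70%; 2 = 30 to 50%; 1 = 10 to 30%; 0 = under 10%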; settings: dose 1.6 g ai/10a, 21st day after application
Procedure: (§6) (Test on Crop Plant Selectivity by Upland Field Soil Treatment)
(§7) In a plastic pot (surface area: 600 cm^2) filled with sand, wheat (Tr), Diaitaria ciliaris (Di), green foxtail (Se), pale smartweed (Po), slender amaranth (Am), common lambsquarters (Ch) and China jute (Ab) were sown and covered with soil. […] The plants were then cultured in a green house, and the evaluation of the herbicidal effects and phytotoxicity was conducted on the 21st day after the application in accordance with the standards as identified in Table 47. Symbol—represents “not tested”.

[22] = test system: green foxtail (Se); experiment: Test Example 5: crop plant selectivity by upland field soil treatment (wheat), herbicidal effects; format: in vivo; set-up: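 grade of growth control; 5 = at least 90%; 4 = 70 to 90%; 3 = 50 to 70%; 2 = 30 to 50%; 1 = 10 to 30%; 0 = under 10%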; settings: dose 1.6 g ai/10a, 21st day after application
Procedure: as §6, §7

[23] = test system: pale smartweed (Po); experiment: as above; format: in vivo; set-up: scale not given here; settings: dose 1.6 g ai/10a, 21st day after application
Procedure: as §6, §7

[24] = test system: slender amaranth (Am); experiment: as above; format: in vivo; set-up: scale not given here; settings: dose 1.6 g ai/10a, 21st day after application
Procedure: as §6, §7

[25] = test system: common lambsquarters (Ch); experiment: as above; format: in vivo; set-up: scale not given here; settings: dose 1.6 g ai/10a, 21st day after application
Procedure: as §6, §7

[26] = test system: China jute (Ab); experiment: as above; format: in vivo; set-up: scale not given here; settings: dose 1.6 g ai/10a, 21st day after application
Procedure: as §6, §7

[27] = test system: cotton (Go); experiment: Test Example 4: crop plant selectivity by upland field soil treatment (cotton), phytotoxicity; format: in vivo; set-up: scale not given here; settings: evaluated 21st day after application
Procedure: as §6
(§8) In a plastic pot (surface area: 600 cm^2) filled with sand, cotton (Go), Diaitaria ciliaris (Di), green foxtail (Se), pale smartweed (Po), slender amaranth (Am), common lambsquarters (Ch) and China jute (Ab) were sown and covered with soil. […] The plants were then cultured in a green house, and the evaluation of the herbicidal effects and phytotoxicity was conducted on the 21st day after the application in accordance with the standards as identified in Table 47. Symbol—represents “not tested”.

[28] = test system: green foxtail (Se); experiment: Test Example 4: crop plant selectivity by upland field soil treatment (cotton), herbicidal effects; format: in vivo; set-up: scale not given here; settings: evaluated 21st day after application
Procedure: as §6, §8

[29] = test system: pale smartweed (Po); experiment: as above; format: in vivo; set-up: scale not given here; settings: evaluated 21st day after application
Procedure: as §6, §8

[30] = test system: slender amaranth (Am); experiment: as above; format: in vivo; set-up: scale not given here; settings: evaluated 21st day after application
Procedure: as §6, §8

[31] = test system: common lambsquarters (Ch); experiment: as above; format: in vivo; set-up: scale not given here; settings: evaluated 21st day after application
Procedure: as §6, §8

[32] = test system: China jute (Ab); experiment: as above; format: in vivo; set-up: scale not given here; settings: evaluated 21st day after application
Procedure: as §6, §8

[33] = evaluated on the 21st day after application
[34] = 100 g active ingredient per 10 ares, evaluated 14th day after treatment
[35] = 21st day after the application, index 0-5 of Table 47
[36] = 100 g of the active ingredient per 10 ares, evaluated on the 14th day after treatment

How did the “Herbicidal effects Po” value [1] turn out when CCn1c(=O)sc2cc(F)c(-c3ccc(C(F)(F)F)n(C)c3=O)cc21 [Compound 3-7] was run?
Its value is 5.

What about the “Herbicidal effects Am” value [2] of the same molecule?
Its value is 5.

And the “Herbicidal effects Ch” value [3]?
Its value is 5.

And the “Herbicidal effects Ab” value [4]?
The value was 5.

What about the “Herbicidal effects Po” value [5, 33] of the same molecule?
Its value is 5.

And the “Herbicidal effects Am” value [6, 33]?
The value was 5.

What about the “Herbicidal effects Ec” value [7, 33] of the same molecule?
The value was 5.

And the “Herbicidal effects Ch” value [8, 33]?
Its value is 5.

What about the “Herbicidal effects Di” value [9, 33] of the same molecule?
The value was 5.

What about the “Herbicidal effects Ci” value [10, 33] of the same molecule?
The value was 5.

And the “Phytotoxicity Tr” value [11]?
The value was 2.

What about the “Herbicidal effects Po” value [12, 34] of the same molecule?
The value was 5.

What about the “Herbicidal effects Am” value [13, 34] of the same molecule?
The value was 5.

And the “Herbicidal effects Ec” value [14, 34]?
The value was 5.

What about the “Herbicidal effects Di” value [15, 34] of the same molecule?
Its value is 5.

And the “Herbicidal effects Ch” value [16, 34]?
The value was 5.

What about the “Herbicidal effects Ci” value [17, 34] of the same molecule?
The value was 5.

What about the “Herbicidal effects Sc” value [18] of the same molecule?
The value was 5.

What about the “Herbicidal effects Ec” value [19] of the same molecule?
Its value is 5.

What about the “Herbicidal effects Mo” value [20] of the same molecule?
Its value is 5.

Which “Herbicidal effects Po” value [1] does the source give for CC(Br)c1cc2c(-c3ccc(C(F)(F)F)n(C)c3=O)c(F)cc(Cl)c2o1 (stereo not shown) [Compound 4-34] here?
Its value is 5.

What about the “Herbicidal effects Am” value [2] of the same molecule?
The value was 5.

And the “Herbicidal effects Ch” value [3]?
The value was 5.

What about the “Herbicidal effects Ab” value [4] of the same molecule?
Its value is 5.

And the “Herbicidal effects Po” value [5, 33]?
The value was 5.

And the “Herbicidal effects Am” value [6, 33]?
Its value is 5.

What about the “Herbicidal effects Ec” value [7, 33] of the same molecule?
Its value is 5.

And the “Herbicidal effects Ch” value [8, 33]?
The value was 5.

And the “Herbicidal effects Di” value [9, 33]?
Its value is 5.

And the “Herbicidal effects Ci” value [10, 33]?
Its value is 5.

What about the “Phytotoxicity Tr” value [11] of the same molecule?
The value was 2.

What about the “Herbicidal effects Po” value [12, 34] of the same molecule?
The value was 5.

And the “Herbicidal effects Am” value [13, 34]?
Its value is 5.

What about the “Herbicidal effects Ec” value [14, 34] of the same molecule?
The value was 5.

And the “Herbicidal effects Di” value [15, 34]?
Its value is 5.

What about the “Herbicidal effects Ch” value [16, 34] of the same molecule?
Its value is 5.

What about the “Herbicidal effects Ci” value [17, 34] of the same molecule?
Its value is 5.

What about the “Herbicidal effects Sc” value [18] of the same molecule?
The value was 5.

What about the “Herbicidal effects Ec” value [19] of the same molecule?
The value was 5.

What about the “Herbicidal effects Mo” value [20] of the same molecule?
The value was 5.

How did the “Phytotoxicity Tr” value [21] turn out when Cn1c(C(F)(F)F)ccc(-c2cc(Oc3ncccn3)c(Cl)cc2F)c1=O [Compound No. 1-27] was run?
Its value is 1.

What about the “Herbicidal effects Se” value [22] of the same molecule?
Its value is 5.

And the “Herbicidal effects Po” value [23]?
The value was 5.

And the “Herbicidal effects Am” value [24]?
The value was 5.

And the “Herbicidal effects Ch” value [25]?
The value was 5.

What about the “Herbicidal effects Ab” value [26] of the same molecule?
Its value is 5.

What about the “Phytotoxicity Go” value ([27]; dose 1.6 g ai/10 a) of the same molecule?
Its value is 1.

What about the “Phytotoxicity Go” value ([27]; dose 6.3 g ai/10 a) of the same molecule?
Its value is 1.

And the “Herbicidal effects Po” value [5, 35]?
The value was 5.

What about the “Herbicidal effects Am” value [6, 35] of the same molecule?
Its value is 5.

What about the “Herbicidal effects Ec” value [7, 35] of the same molecule?
Its value is 5.

And the “Herbicidal effects Ch” value [8, 35]?
The value was 5.

And the “Herbicidal effects Di” value [9, 35]?
The value was 5.

And the “Herbicidal effects Ci” value [10, 35]?
Its value is 5.

What about the “Herbicidal effects Po” value [12, 36] of the same molecule?
The value was 5.

What about the “Herbicidal effects Am” value [13, 36] of the same molecule?
Its value is 5.

And the “Herbicidal effects Ec” value [14, 36]?
The value was 5.

What about the “Herbicidal effects Di” value [15, 36] of the same molecule?
Its value is 5.

What about the “Herbicidal effects Ch” value [16, 36] of the same molecule?
The value was 5.

And the “Herbicidal effects Ci” value [17, 36]?
Its value is 5.

And the “Herbicidal effects Sc” value [18]?
The value was 5.

What about the “Herbicidal effects Ec” value [19] of the same molecule?
Its value is 5.

What about the “Herbicidal effects Mo” value [20] of the same molecule?
Its value is 5.

And the “Herbicidal effects Se” value ([28]; dose 1.6 g ai/10 a)?
The value was 5.

And the “Herbicidal effects Se” value ([28]; dose 6.3 g ai/10 a)?
The value was 5.

And the “Herbicidal effects Po” value ([29]; dose 1.6 g ai/10 a)?
The value was 5.

And the “Herbicidal effects Po” value ([29]; dose 6.3 g ai/10 a)?
Its value is 5.

What about the “Herbicidal effects Am” value ([30]; dose 1.6 g ai/10 a) of the same molecule?
Its value is 5.

What about the “Herbicidal effects Am” value ([30]; dose 6.3 g ai/10 a) of the same molecule?
Its value is 5.

What about the “Herbicidal effects Ch” value ([31]; dose 1.6 g ai/10 a) of the same molecule?
The value was 5.

And the “Herbicidal effects Ch” value ([31]; dose 6.3 g ai/10 a)?
Its value is 5.

What about the “Herbicidal effects Ab” value ([32]; dose 1.6 g ai/10 a) of the same molecule?
The value was 5.

What about the “Herbicidal effects Ab” value ([32]; dose 6.3 g ai/10 a) of the same molecule?
Its value is 5.
